Patent publication US20240391912A1, “MORPHIC FORMS OF CFT7455 AND METHODS OF MANUFACTURE THEREOF” (C4 THERAPEUTICS, INC., priority 2022, published 2024)
Converted amounts (≈) assume the structure as drawn.

Assays:
[1] = Approximate solubility of Compound 5 polymorphs in EtOH:DCM (v:v=1:4); type: physicochemical; conditions: EtOH:DCM (v:v = 1:4), 25° C.
Experimental: Four polymorphs (Form V, Form VI, Form VII and Form VIII) were weighed respectively and a suitable amount of solvent mixture EtOH:DCM (v:v=1:4) was added. The obtained samples were stirred at a rate of 400 rpm at 25° C.

[2] = Crystallization of Compound 5 by addition of anti-solvent; type: physicochemical
Experimental: The obtained solutions were filtered through a 0.45 μm syringe membrane filter. […] Precipitates were investigated by XRPD. For samples with different XRPD patterns, ^1H-NMR was performed.

[3] = Equilibration of Compound 5 Form V with solvents at 25° C. for 1 week (XRPD); type: physicochemical
Experimental: The obtained suspensions were centrifuged at 14,000 rpm. The solid parts (wet cakes) were investigated by XRPD.

[4] = Crystallization of Compound 5 from hot saturated solutions by fast cooling; type: physicochemical; conditions: fast cooling to about 0° C.
Experimental: Based on approximate solubility results, about 30 mg of Compound 5 Form V was dissolved in a minimal amount of selected solvent at 50° C. […] No precipitate came out by fast cooling.

[5] = Approximate solubility of Compound 5 Form V at 25° C. (visual observation / HPLC); type: physicochemical; conditions: for solubility: solubilized at about 25° C.
Experimental: About 5 mg of Compound 5 Form V was weighed to an 8 mL glass vial. 100 μL aliquots of each solvent were added to dissolve the drug substance at 25° C. Vortex and sonication were applied to assist dissolution. The maximum volume of each solvent added is 1 mL. Approximate solubility was determined by visual observation.
For low solubility samples: Aliquots of selected solvent were added to 5 mg of Compound 5 create a suspension. The suspensions were kept at 25° C. for 24 hours. The suspension was taken out and centrifuged. To eliminate solvent effect, 50 μL or 100 μL of supernatant was added into a 2 mL glass vial and evaporated at ambient condition (22-25° C., 30-60% RH).

[6] = Characterization of polymorphs and pseudo-polymorphs of Compound 5; type: physicochemical
[7] = Crystallization of Compound 5 at room temperature by fast evaporation; type: physicochemical
Experimental: Based on approximate solubility results, about 20 mg of Compound 5 Form V was dissolved in 1-6 mL of solvents. […] The solid residue was investigated by XRPD. For samples with different XRPD patterns, ^1H-NMR was performed.

[8] = tested on: OCI-LY10 human DLBCL intracranial xenografts; assay: OCI-LY10 human DLBCL intracranial xenograft study, survival
Experimental: Agents were tested in the OCI-LY10 human DLBCL intracranial model. […] Rituximab was administered from day 1 via i.v. once per week. Rituximab was dosed at 10 and 30 mg/kg. Individual mouse was euthanized once its body weight loss was over 20%.
The cells growing in an exponential growth phase were harvested and counted for tumor inoculation.
99 CB17 SCID mice were inoculated by intracranial injection with OCI-LY10 cells (1×10^6) for tumor development.
Tumor inoculation: Intraperitoneally injected avertin at dosage of 240 mg/kg to anaesthetize the CB17 SCID mice. Fixed the head of the anaesthetized mice to the brain solid positioner, sterilized the head skin with 70% alcohol. […] Punched a hole about 2 mm right of the anterior fontanel and 1 mm ahead the coronal on the skull with a 25 G needle. Cell suspensions were mixed and certain amount was sucked into the 5 μL injector slowly to avoid bubble formation. The cells were swapped around the needle with alcohol to avoid extracranial tumor genesis. The needle was stuck vertically into the formed hold and 5 μL of cell suspension containing 1×10^6 OCI-LY10 cells was slowly injected for over 1 minute. The injector was then held for another 1 minute and then pulled back to decrease the drainage of the cells suspension. The skin was closed with tweezers and then sewed. Meloxicam was then injected 30 min after the surgery at dosage of 5 mg/kg to relieve the pain. The animals were kept under monitoring until they were awake.
Animals were grouped for treatment on day 7 after tumor inoculation.
At the time of routine monitoring, the animals were daily checked for any effects of tumor growth and treatments on normal behavior such as mobility, food and water consumption (by looking only), body weight gain/loss (body weights were measured twice weekly), eye/hair matting and any other abnormal effect as stated in the protocol. Death and observed clinical signs were recorded on the basis of the numbers of animals within each subset.

[9] = biological target: T1, Ikaros (also known as IKZF1) (Homo sapiens, UniProt Q13422+Q96SW2); assay: Ikaros degradation in PBMC of patients (mass spectrometry); type: in vivo; conditions: Patients 2, 4, 5; oral 50 μg/day or 25 μg/day; 4 hours, day 7, 14, 21 of cycle 1
T1 construct: total peripheral blood mononuclear cell (PBMC) population extracted from whole blood samples of Patient 2, Patient 4, and Patient 5; endogenous in cells; host or cells: peripheral blood mononuclear cells (PBMC) from whole blood of treated patients
Experimental: (§1) Ikaros (also known as IKZF1) and Aiolos (also known as IKZF3) degradation was evaluated using mass spectrometry analysis of total peripheral blood mononuclear cell (PBMC) population extracted from whole blood samples of Patient 2, Patient 4, and Patient 5 taken on the first day of the first cycle (cycle 1, day 1 or C1D1) prior to treatment, 4 hours post Compound 1 treatment, and on day 7, day 14, and day 21 of the treatment cycle.

[10] = biological target: T2, Aiolos (also known as IKZF3) (Homo sapiens, UniProt Q9UKT9); assay: Aiolos degradation in PBMC of patients (mass spectrometry); type: in vivo; conditions: Patients 2, 4, 5; oral 50 μg/day or 25 μg/day; 4 hours, day 7, 14, 21 of cycle 1
T2 construct: total peripheral blood mononuclear cell (PBMC) population extracted from whole blood samples of Patient 2, Patient 4, and Patient 5; endogenous in cells; host or cells: peripheral blood mononuclear cells (PBMC) from whole blood of treated patients
Experimental: as §1

[11] = tested on: involved and uninvolved free light chains; assay: Reduction in dFLC after single agent exposure to Compound 1; type: in vivo, human
Experimental: Using samples collecting in Example 24, the difference between involved free light chains and uninvolved free light changes, or dFLC, for Patients 1-3 were calculated using the following formula:
[Abnormal light chainbaseline−normal light chainbaseline]−[Abnormal light chainnadir−normal light chainnadir]/[Abnormal light chainbaseline−normal light chainbaseline]*100 dFLC equation: […]

[12] = Compound 1, 0.01 mg/kg, p.o., QD

T1 sequence (Q13422 whole entry): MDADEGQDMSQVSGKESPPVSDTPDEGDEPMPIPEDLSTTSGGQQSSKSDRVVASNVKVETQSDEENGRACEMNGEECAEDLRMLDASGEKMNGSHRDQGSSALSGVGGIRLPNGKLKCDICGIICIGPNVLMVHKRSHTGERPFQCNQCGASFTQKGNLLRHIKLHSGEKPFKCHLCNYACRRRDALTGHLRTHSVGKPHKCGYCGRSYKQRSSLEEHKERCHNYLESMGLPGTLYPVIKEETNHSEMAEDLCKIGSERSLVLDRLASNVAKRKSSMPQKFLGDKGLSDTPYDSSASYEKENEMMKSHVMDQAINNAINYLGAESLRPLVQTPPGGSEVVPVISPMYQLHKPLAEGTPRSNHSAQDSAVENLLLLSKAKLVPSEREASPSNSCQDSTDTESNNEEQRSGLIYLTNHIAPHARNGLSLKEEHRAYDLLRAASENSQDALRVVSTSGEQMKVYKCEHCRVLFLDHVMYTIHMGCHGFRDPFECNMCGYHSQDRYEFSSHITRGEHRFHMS
T1 sequence (Q96SW2 whole entry): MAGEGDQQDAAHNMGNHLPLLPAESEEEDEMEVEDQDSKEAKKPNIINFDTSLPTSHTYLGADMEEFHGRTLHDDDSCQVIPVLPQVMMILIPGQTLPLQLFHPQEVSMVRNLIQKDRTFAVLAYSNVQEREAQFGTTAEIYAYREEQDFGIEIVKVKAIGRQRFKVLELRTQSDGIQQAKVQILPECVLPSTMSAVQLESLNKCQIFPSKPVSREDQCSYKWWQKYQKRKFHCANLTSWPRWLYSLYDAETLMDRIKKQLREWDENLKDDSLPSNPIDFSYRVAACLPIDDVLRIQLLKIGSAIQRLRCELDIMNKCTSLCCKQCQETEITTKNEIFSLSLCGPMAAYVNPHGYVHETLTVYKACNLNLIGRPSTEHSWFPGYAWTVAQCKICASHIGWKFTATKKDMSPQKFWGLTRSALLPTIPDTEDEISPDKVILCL
T1 sequence (Q16531 whole entry partner): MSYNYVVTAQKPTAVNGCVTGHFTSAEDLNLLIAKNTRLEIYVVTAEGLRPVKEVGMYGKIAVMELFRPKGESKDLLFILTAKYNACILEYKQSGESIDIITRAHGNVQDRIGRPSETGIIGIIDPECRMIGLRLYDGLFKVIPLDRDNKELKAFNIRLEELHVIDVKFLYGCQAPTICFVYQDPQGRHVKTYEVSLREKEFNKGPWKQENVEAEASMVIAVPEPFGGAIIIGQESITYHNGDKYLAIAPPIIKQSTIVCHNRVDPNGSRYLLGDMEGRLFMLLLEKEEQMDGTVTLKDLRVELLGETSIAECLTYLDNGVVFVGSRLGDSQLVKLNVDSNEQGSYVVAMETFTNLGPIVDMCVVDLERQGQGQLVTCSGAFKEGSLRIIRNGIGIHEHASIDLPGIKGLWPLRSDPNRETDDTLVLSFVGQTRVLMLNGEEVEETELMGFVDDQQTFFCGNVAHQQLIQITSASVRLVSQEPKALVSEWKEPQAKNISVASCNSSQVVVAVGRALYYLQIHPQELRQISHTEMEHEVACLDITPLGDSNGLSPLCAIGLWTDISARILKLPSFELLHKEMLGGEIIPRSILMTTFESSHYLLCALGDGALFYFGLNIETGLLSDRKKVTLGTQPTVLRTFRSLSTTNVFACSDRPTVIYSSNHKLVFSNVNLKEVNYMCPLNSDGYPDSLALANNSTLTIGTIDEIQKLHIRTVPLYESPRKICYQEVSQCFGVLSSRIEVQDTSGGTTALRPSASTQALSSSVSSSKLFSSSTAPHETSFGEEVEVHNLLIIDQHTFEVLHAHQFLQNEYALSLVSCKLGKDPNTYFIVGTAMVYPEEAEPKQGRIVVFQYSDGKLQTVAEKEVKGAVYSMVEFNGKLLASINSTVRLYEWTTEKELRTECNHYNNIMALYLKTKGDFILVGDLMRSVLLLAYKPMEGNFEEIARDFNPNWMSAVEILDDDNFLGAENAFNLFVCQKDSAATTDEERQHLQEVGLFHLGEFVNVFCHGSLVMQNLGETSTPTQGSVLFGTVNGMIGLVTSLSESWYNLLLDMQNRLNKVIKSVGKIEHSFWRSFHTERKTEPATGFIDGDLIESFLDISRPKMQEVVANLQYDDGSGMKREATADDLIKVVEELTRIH
T2 sequence (Q9UKT9 whole entry): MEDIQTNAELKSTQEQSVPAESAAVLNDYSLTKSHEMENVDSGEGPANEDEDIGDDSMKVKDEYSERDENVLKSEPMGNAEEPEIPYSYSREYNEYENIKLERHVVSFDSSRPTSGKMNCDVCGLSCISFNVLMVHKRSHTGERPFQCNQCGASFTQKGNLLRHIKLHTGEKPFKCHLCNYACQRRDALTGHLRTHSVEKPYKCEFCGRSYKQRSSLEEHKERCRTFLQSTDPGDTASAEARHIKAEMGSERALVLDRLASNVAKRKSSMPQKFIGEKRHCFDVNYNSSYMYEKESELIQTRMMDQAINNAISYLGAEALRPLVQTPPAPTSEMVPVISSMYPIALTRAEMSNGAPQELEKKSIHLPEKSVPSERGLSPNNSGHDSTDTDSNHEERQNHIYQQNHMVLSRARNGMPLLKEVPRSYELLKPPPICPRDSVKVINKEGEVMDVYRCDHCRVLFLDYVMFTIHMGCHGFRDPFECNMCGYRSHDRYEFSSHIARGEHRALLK
T2 sequence (Q96SW2 whole entry, further chain): as the sequence (Q96SW2 whole entry) above
T2 sequence (Q16531 whole entry partner): as the sequence (Q16531 whole entry partner) above

## O=C1CCC(N2C(=O)c3cccc4c(Cc5ccc(CN6CCOCC6)cc5)ccc2c34)C(=O)N1 (racemic) [Compound 5 Form V]
[1]; concentration 5 mg/mL
  Approximate solubility (visual appearance): Suspension
[1]; concentration 10 mg/mL, listed as Form V
  Approximate solubility (visual appearance): Suspension
[1]; concentration 20 mg/mL, listed as Form V
  Approximate solubility (visual appearance): Suspension
[2]; precipitate (Form VIII) from DMF(1.0 mL)/H2O (2.0 mL)
  Additional analysis 1H-NMR: DMF: 2 equiv. DMF
[2]; solvent DMF(1.0 mL), anti-solvent H2O (2.0 mL)
  XRPD: Form VIII
[3]; equilibration in Acetone
  XRPD: Form V
[3]; equilibration in Benzyl alcohol
  XRPD: Form V
[3]; equilibration in Chloroform
  XRPD: Form V
[3]; equilibration in DMF
  XRPD: Form V
[3]; equilibration in MeOH/DCM (v:v = 1:1)
  XRPD: Form V
[3]; equilibration in Pyridine, wet cake
  XRPD: Form V
[3]; equilibration in THF
  XRPD: Form V
[3]; equilibration in Trifluoroethanol
  XRPD: Form V
[4]; 1-Methyl-2-pyrrolidinone, 50° C.
  Comments: Clear solution
[4]; Acetone, dissolved at 50° C.
  Comments: Clear solution
[4]; Benzyl alcohol, 50° C.
  Comments: Clear solution
[4]; Chloroform, 50° C.
  Comments: Clear solution
[4]; DMF, 50° C.
  Comments: Clear solution
[4]; Pyridine, 50° C.
  Comments: Clear solution
[4]; THF, 50° C.
  Comments: Clear solution
[4]; Trifluoroethanol, 50° C.
  Comments: Clear solution
[5]; 1,4-Dioxane, tested by HPLC
  Solubility (mg/mL) at 25° C.: 2.3 mg/mL (≈ 4.9 mM)
[5]; 1-Methyl-2-pyrrolidinone, tested by observation
  Solubility (mg/mL) at 25° C.: >50 mg/mL
[5]; 2-Me THF, tested by HPLC
  Solubility (mg/mL) at 25° C.: 0.2 mg/mL (≈ 0.426 mM)
[5]; Acetic acid, tested by HPLC
  Solubility (mg/mL) at 25° C.: 5.5 mg/mL (≈ 11.7 mM)
[5]; Acetone, tested by HPLC
  Solubility (mg/mL) at 25° C.: 3.3 mg/mL (≈ 7.03 mM)
[5]; Acetonitrile, tested by HPLC
  Solubility (mg/mL) at 25° C.: 2.2 mg/mL (≈ 4.69 mM)
[5]; Anisole, tested by HPLC
  Solubility (mg/mL) at 25° C.: 1.1 mg/mL (≈ 2.34 mM)
[5]; Benzyl alcohol, tested by observation
  Solubility (mg/mL) at 25° C.: 12 to 25 mg/mL
[5]; Chloroform, tested by observation
  Solubility (mg/mL) at 25° C.: 5 to 10 mg/mL
[5]; DMF, tested by observation
  Solubility (mg/mL) at 25° C.: 25 to 50 mg/mL
[5]; DMSO, tested by observation
  Solubility (mg/mL) at 25° C.: >50 mg/mL
[5]; Ethanol, tested by HPLC
  Solubility (mg/mL) at 25° C.: 0.6 mg/mL (≈ 1.28 mM)
[5]; Ethyl acetate, tested by HPLC
  Solubility (mg/mL) at 25° C.: 0.1 mg/mL (≈ 0.213 mM)
[5]; MeOH/DCM (v:v = 1:1), tested by observation
  Solubility (mg/mL) at 25° C.: ~5 mg/mL (≈ 10.6 mM)
[5]; Methanol, tested by HPLC
  Solubility (mg/mL) at 25° C.: 0.2 mg/mL (≈ 0.426 mM)
[5]; Propylene glycol methyl ether, tested by HPLC
  Solubility (mg/mL) at 25° C.: 2.3 mg/mL (≈ 4.9 mM)
[5]; Propylene glycol, tested by HPLC
  Solubility (mg/mL) at 25° C.: 3.4 mg/mL (≈ 7.24 mM)
[5]; Pyridine, tested by observation
  Solubility (mg/mL) at 25° C.: 25 to 50 mg/mL
[5]; THF, tested by HPLC
  Solubility (mg/mL) at 25° C.: 3.8 mg/mL (≈ 8.09 mM)
[5]; Toluene, tested by HPLC
  Solubility (mg/mL) at 25° C.: 0.2 mg/mL (≈ 0.426 mM)
[5]; Trifluoroethanol, tested by observation
  Solubility (mg/mL) at 25° C.: 25 to 50 mg/mL
[5]; in 1-methyl-2-pyrrolidinone
  solubility: at least 50 mg/mL
[5]; in DMSO
  solubility: at least 50 mg/mL
[6]
  Residual solvent (by 1H-NMR): THF: 0.4% residual of
[6]; DSC
  Endothermic onset (by DSC): onset at 220.0 °C
[6]; DSC, listed as Form V
  Dehydration (by DSC): Tonset 38.5° C.;
[6]; XRPD method 2
  Crystallinity (by XRPD): Crystalline
[6]; at 140° C.
  Weight loss (by TGA): 5.1% at 140 °C
[7]; fast evaporation from 1-Methyl-2-pyrrolidinone
  XRPD: Form VII
[7]; fast evaporation from Benzyl alcohol
  XRPD: Form V
[7]; fast evaporation from Chloroform
  XRPD: Amorphous form
[7]; fast evaporation from DMSO, room temperature, dry nitrogen flow
  XRPD: Form VI
[7]; fast evaporation from THF
  XRPD: Form V
[7]; fast evaporation from Trifluoroethanol
  Additional analysis (appearance of residue): Oil
[7]; residue (Form VI) of fast evaporation from DMSO
  Additional analysis 1H-NMR: DMSO: ^1H-NMR: 0.4 equiv. DMSO
[7]; residue (Form VII) of fast evaporation from 1-Methyl-2-pyrrolidinone, 2 unknown peaks
  Additional analysis 1H-NMR: NMP: ^1H-NMR: 1.6 equiv. NMP;

## O=C1CC[C@H](N2C(=O)c3cccc4c(Cc5ccc(CN6CCOCC6)cc5)ccc2c34)C(=O)N1 [Compound 1, (S)-3-(6-(4-(morpholinomethyl)benzyl)-2-oxobenzo[cd]indol-1(2H)-yl)piperidine-2,6-dione]
[8]; Compound 1 0.01 mg/kg p.o. once per day, p=0.001
  extension of survival time: 35.7%
[8]; [12]
  Median Survival (Days), ± SEM: 19.00 ± 1.41 days
  Survival time extension (%): 35.7%
[9]
  Ikaros (IKZF1) degradation in PBMC compared to baseline: deep degradation
[10]
  Aiolos (IKZF3) degradation in PBMC compared to baseline: deep degradation
[11]; Patient 1, first dose 50 μg oral, no extramedullary disease, ∇ (down)
  % Change at Nadir in dFLC: ∇ 48.2%
[11]; Patient 2, first dose 50 μg oral, Multiple Plasmacytomas, ∇ (down)
  % Change at Nadir in dFLC: ∇ 78.1%
[11]; Patient 3, first dose 50 μg oral, Lytic Bone Lesions, ∇ (down)
  % Change at Nadir in dFLC: ∇ 41.0%
[11]; Patient 4, first dose 50 μg oral, no extramedullary disease, printed with Δ (up)
  % Change at Nadir in dFLC: Δ 56.3%
